According to patent publication US10053422B2, “Compounds for the treatment of mTOR pathway related diseases” (Pitney Pharmaceuticals Pty Limited, priority 2012, dated 2018):

Assays:
cancer cell lines = assay: SRB cell proliferation assay, range of cancer cell lines (general statements); format: cell-based
Description: Cell proliferation was assessed using the sulforhodamine B (SRB) assay. Cells seeded in 96-well plate (2,000-3,000 cell/well) were treated with MPL (0, 1, 5, 10, 25, 50 and 100 μmol/L) for 72 h. Cells were then fixed, washed and stained with 100 μl of 0.4% (w/v) SRB dissolved in 1% acetic acid. Unbound dye was removed by five washes with 1% acetic acid before air drying. Bound SRB was solubilized with 100 μl of 10 mM Tris base (pH 10.5) and the absorbance read at 570 nm. Exactly the same procedure was used to assess MPL-SO2. Both agents were dissolved in ethanol and diluted with media to give the final concentrations required for cell culture assays.
In brief, MPL and MPL-SO2 were tested in vitro against a wide range of cancer cell-lines with extensively different disease characteristics. For further detailed studies, human ovarian cancer cell lines OVCAR-3 and A2780 were chosen. Additionally, normal human ovarian surface epithelial cells (HOSE) and were cultured in the presence of MPL (0, 5, 10, 25, 50 and 100 μM) for 72 h. Cell viability was assessed using Trypan blue assay (FIG. 9). Similarly, effect of MPL on the growth of normal epithelial, endothelial, embryonic and fetal cells were investigated (FIG. 10) while cell proliferation was assessed using the SRB assay (FIG. 11). Control (vehicle treated) cells were taken to present 100% proliferation and the MPL treated groups are expressed as percentage of control±SEM. Each drug concentration was tested in quadruplicate and each experiment was repeated at least twice. For statistical comparisons, each drug treated group is compared to the control group using Student's t test. To examine concentration dependent drug effect, analysis of variance (ANOVA) was used. P values are: *=<0.05; **<0.01 and ***=<0.001, **** p<0.0001. […] In order to find out if the MPL effect is mediated through the nicotinic acetyl choline receptor and in particular the nACHR7 subtype, cells were pretreated with antagonists and then exposed to MPL (FIG. 12).

[1] = test system: cdk2, cdk4, cyclins A, and E; assay: Western blot of cell cycle regulatory proteins; format: cell-based; conditions: MPL 0, 5, 10, 25 μM
Description: (§1) Whole-protein extracts were obtained and separated by electrophoresis and immunoblots were probed with the indicated antibodies. Western blot analysis showing the levels of these proteins in each extract was analysed using the relevant antibodies. The image represents the exposed radiographic film scanned. The house-keeping gene (GAPDH) was used to confirm similar protein loading and blot transfer.
as §1, with “electrophoresis,” for “electrophoresis”
Protein expression in cells was determined using western blot analysis. After treatment with the indicated concentrations of MPL, cell lysates were prepared and probed with antibodies for cdk2, cdk4, cyclin A, cyclin E, PARP-1 (1:1000 dilutions; Cell Signalling Technology), and p53 (1:200 dilutions; Santa Cruz Biotechnology).

## C[C@](C#N)(COc1cc(C#N)ccc1C(F)(F)F)NC(=O)c1ccc(SC(F)(F)F)cc1 [MPL, N-[(1S)-1-Cyano-2-(5-cyano-2-trifluoromethyl-phenoxy)-1-methyl-ethyl]-4-trifluoromethylsulfanyl-benzamide]
Cancer cell lines; ovarian chemo-resistant, glioma temozolimide resistant, breast cancer tamoxifen resistant cells
  antiproliferative action on chemo-resistant cell lines: sensitive
Cancer cell lines; results of Table 2
  antiproliferative activity, cancer cell lines versus normal cells: high antiproliferative activity in cancer cell lines, whereas, normal cells are far less affected
[1]
  expression of cell cycle regulatory proteins cdk2, cdk4, cyclins A and E: lower levels of cdk2, cdk4, cyclins A, and E
